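Method: 48-hour compound exposure of cells in 96-well plates, five concentrations, linear interpolation of endpoints. The concentration for 50% growth inhibition is given as GI50.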 Active and inactive are the calls of the source. Rule as the data show it: active = GI50 up to about 1.1 µM and inactive = higher.
How the values were obtained:
Test in all cases: inhibition of tumour cell growth, NCI panel, 48 h
MDA-MB-435 = test system: MDA-MB-435
TK-10 = test system: TK-10
OVCAR-3 = test system: OVCAR-3
SK-MEL-2 = test system: SK-MEL-2
HT-29 = test system: HT-29
OVCAR-4 = test system: OVCAR-4
SNB-19 = test system: SNB-19
SR = test system: SR
ACHN = test system: ACHN
NCI-H460 = test system: NCI-H460
Hs-578T = test system: Hs-578T
UACC-62 = test system: UACC-62
CCRF-CEM = test system: CCRF-CEM
LOX IMVI = test system: LOX IMVI
UACC-257 = test system: UACC-257
T47D = test system: T47D
SNB-75 = test system: SNB-75
M14 = test system: M14
HCT-116 = test system: HCT-116
RXF 393 = test system: RXF 393
SW-620 = test system: SW-620
NCI-H226 = test system: NCI-H226
IGROV-1 = test system: IGROV-1
786-0 = test system: 786-0
SF-539 = test system: SF-539
SK-OV-3 = test system: SK-OV-3
UO-31 = test system: UO-31
KM12 = test system: KM12
MCF7 = test system: MCF7
A498 = test system: A498
SF-268 = test system: SF-268
NCI-H522 = test system: NCI-H522
BT-549 = test system: BT-549
K562 = test system: K562
MDA-N = test system: MDA-N
NCI-H23 = test system: NCI-H23
PC-3 = test system: PC-3
CAKI-1 = test system: CAKI-1
MOLT-4 = test system: MOLT-4
NCI/ADR-RES = test system: NCI/ADR-RES
HL-60 = test system: HL-60
A549 = test system: A549
RPMI-8226 = test system: RPMI-8226
COLO 205 = test system: COLO 205
OVCAR-8 = test system: OVCAR-8
SK-MEL-5 = test system: SK-MEL-5
HOP-92 = test system: HOP-92
HCT-15 = test system: HCT-15
SN12C = test system: SN12C
EKVX = test system: EKVX
MDA-MB-231 = test system: MDA-MB-231
DU-145 = test system: DU-145
U-251 = test system: U-251
SF-295 = test system: SF-295
OVCAR-5 = test system: OVCAR-5
HOP-62 = test system: HOP-62
HCC 2998 = test system: HCC 2998
SK-MEL-28 = test system: SK-MEL-28
Malme-3M = test system: Malme-3M

## CSc1ncc2c(n1)-c1ccccc1OC2N1CCCCC1 (configuration not stated)
MDA-MB-435
  GI50: 31.1 µM (inactive)
TK-10
  GI50: 27.3 µM (inactive)
OVCAR-3
  GI50: 38.5 µM (inactive)
SK-MEL-2
  GI50: 25.9 µM (inactive)
HT-29
  GI50: 25.4 µM (inactive)
OVCAR-4
  GI50: 28.8 µM (inactive)
SNB-19
  GI50: 68.7 µM (inactive)
SR
  GI50: 18 µM (inactive)
ACHN
  GI50: 37.1 µM (inactive)
NCI-H460
  GI50: 30.4 µM (inactive)
Hs-578T
  GI50: 26.9 µM (inactive)
UACC-62
  GI50: 22.4 µM (inactive)
CCRF-CEM
  GI50: 20.6 µM (inactive)
LOX IMVI
  GI50: 21.1 µM (inactive)
UACC-257
  GI50: 34.6 µM (inactive)
T47D
  GI50: 27.3 µM (inactive)
SNB-75
  GI50: 66.5 µM (inactive)
M14
  GI50: 49.3 µM (inactive)
HCT-116
  GI50: 31 µM (inactive)
RXF 393
  GI50: 32.1 µM (inactive)
SW-620
  GI50: 40.5 µM (inactive)
NCI-H226
  GI50: 32 µM (inactive)
IGROV-1
  GI50: 40.1 µM (inactive)
786-0
  GI50: 29.4 µM (inactive)
SF-539
  GI50: 51.9 µM (inactive)
SK-OV-3
  GI50: > 100 µM (inactive)
UO-31
  GI50: 32.5 µM (inactive)
KM12
  GI50: 38.5 µM (inactive)
MCF7
  GI50: 23.8 µM (inactive)
A498
  GI50: 22.2 µM (inactive)
SF-268
  GI50: 45 µM (inactive)
NCI-H522
  GI50: 18.9 µM (inactive)
BT-549
  GI50: 24.3 µM (inactive)
K562
  GI50: 29.5 µM (inactive)
MDA-N
  GI50: 38.1 µM (inactive)
NCI-H23
  GI50: 41.7 µM (inactive)
PC-3
  GI50: 48.2 µM (inactive)
CAKI-1
  GI50: 21.7 µM (inactive)
MOLT-4
  GI50: 20.2 µM (inactive)
NCI/ADR-RES
  GI50: 40.6 µM (inactive)
HL-60
  GI50: 19.7 µM (inactive)
A549
  GI50: 39.4 µM (inactive)
RPMI-8226
  GI50: 24.4 µM (inactive)
COLO 205
  GI50: 44.8 µM (inactive)
OVCAR-8
  GI50: 63.8 µM (inactive)
SK-MEL-5
  GI50: 20.3 µM (inactive)
HOP-92
  GI50: 25 µM (inactive)
HCT-15
  GI50: 28.9 µM
SN12C
  GI50: 29.8 µM (inactive)
EKVX
  GI50: 35.2 µM (inactive)
MDA-MB-231
  GI50: 23 µM (inactive)
DU-145
  GI50: 34.4 µM (inactive)
U-251
  GI50: 39 µM (inactive)
SF-295
  GI50: 38.5 µM (inactive)
OVCAR-5
  GI50: 42 µM (inactive)

## COc1cccc(/C=C2\SC(=S)N(/C=C3\C(=O)Oc4ccccc4C3=O)C2=O)c1O
MDA-MB-435
  GI50: 24.7 µM (inactive)
OVCAR-3
  GI50: 34.4 µM (inactive)
SK-MEL-2
  GI50: 45.7 µM (inactive)
HT-29
  GI50: 78.3 µM (inactive)
OVCAR-4
  GI50: 82.4 µM (inactive)
SNB-19
  GI50: 41.9 µM (inactive)
SR
  GI50: 30.6 µM (inactive)
ACHN
  GI50: 46 µM (inactive)
NCI-H460
  GI50: 48.1 µM (inactive)
HOP-62
  GI50: 50.7 µM (inactive)
HCC 2998
  GI50: 28.8 µM (inactive)
Hs-578T
  GI50: 25.5 µM (inactive)
UACC-62
  GI50: 53 µM (inactive)
CCRF-CEM
  GI50: 38.7 µM (inactive)
LOX IMVI
  GI50: 63.2 µM (inactive)
UACC-257
  GI50: 68.2 µM (inactive)
T47D
  GI50: 48.6 µM (inactive)
SNB-75
  GI50: 19.8 µM (inactive)
M14
  GI50: 39.4 µM (inactive)
HCT-116
  GI50: 56.9 µM (inactive)
RXF 393
  GI50: 59.4 µM (inactive)
SW-620
  GI50: 44.1 µM (inactive)
NCI-H226
  GI50: > 100 µM (inactive)
IGROV-1
  GI50: 59.2 µM (inactive)
786-0
  GI50: 67.8 µM (inactive)
SF-539
  GI50: 24.9 µM (inactive)
SK-OV-3
  GI50: 49.2 µM (inactive)
UO-31
  GI50: 22.3 µM (inactive)
KM12
  GI50: 45.8 µM (inactive)
MCF7
  GI50: 39.4 µM (inactive)
A498
  GI50: 11.9 µM (inactive)
SF-268
  GI50: 46.7 µM (inactive)
NCI-H522
  GI50: 33.3 µM (inactive)
BT-549
  GI50: 20 µM (inactive)
K562
  GI50: 34.4 µM (inactive)
MDA-N
  GI50: 32.8 µM (inactive)
NCI-H23
  GI50: 45.2 µM (inactive)
PC-3
  GI50: 51.8 µM (inactive)
CAKI-1
  GI50: 81.1 µM (inactive)
MOLT-4
  GI50: 39.1 µM (inactive)
NCI/ADR-RES
  GI50: 41 µM (inactive)
HL-60
  GI50: 41.2 µM (inactive)
A549
  GI50: 59.7 µM (inactive)
RPMI-8226
  GI50: 18.8 µM (inactive)
COLO 205
  GI50: 85.7 µM (inactive)
OVCAR-8
  GI50: 80 µM (inactive)
SK-MEL-5
  GI50: 35.8 µM (inactive)
HCT-15
  GI50: 43.2 µM
SN12C
  GI50: 56.4 µM (inactive)
EKVX
  GI50: > 100 µM (inactive)
MDA-MB-231
  GI50: 33.2 µM (inactive)
DU-145
  GI50: 74.5 µM (inactive)
U-251
  GI50: 31.5 µM (inactive)
SF-295
  GI50: 76.6 µM (inactive)
SK-MEL-28
  GI50: 40.4 µM (inactive)
OVCAR-5
  GI50: > 100 µM (inactive)
Malme-3M
  GI50: > 100 µM (inactive)
